In US20130158024A1, “TRICYCLIC NECROSTATIN COMPOUNDS” (priority 2005, published 2013):
“Also recorded” adds a separate entry of the source.

Tests used:
Jurkat T cells = assay: Necrosis (CICD) of Jurkat T cells induced by Fas ligand, cycloheximide and zVAD, ATP assay; format: cell-based, human; settings: FasL/CHX/zVAD
Summary of the method: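 Jurkat cells given FasL (5 ng/ml), cycloheximide (1 μg/ml) and zVAD.fmk (100 μM) to drive CICD, with compounds at the indicated amounts. Viability read as ATP by CellTiter-Glo after 36 h, relative to untreated cells without FasL (100%).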

BALB/c 3T3 cells = assay: CICD of BALB/c 3T3 cells induced by TNFα/zVAD.fmk; format: cell-based, mouse
FADD deficient JK cells = assay: MNNG-induced death of FADD deficient JK cells; format: cell-based, human; settings: 30 μM Nec-1, 5 hours
Rat hippocampal neurons = assay: Amyloid-beta toxicity in rat hippocampal neurons, ATP assay; format: cell-based; settings: Aβ25-35, 48 or 72 hours
Procedure: Viability was determined using an ATP assay. Similar results were also obtained using Aβ1-42.

[1] = tested on: Primary mouse CD4+ and CD8+ T cells; assay: Activation-induced cell death (AICD) of primary CD4+ and CD8+ T cells; format: cell-based
Procedure: Cell viability was assessed using Sytox Green (Molecular Probes) (CD8) or propidium iodide exclusion (CD4) assays in FIG. 17A or ATP assay in FIG. 17B. Numbers represent the percentages of live cells normalized to the corresponding compound treated controls lacking αCD3.

CD8+ cells = assay: Activation and proliferation of CD8+ cytotoxic T lymphocytes (CTL) suppressed by zVAD.fmk; format: cell-based, mouse; settings: 100 μM zVAD.fmk, 30 μM compound
Procedure: Numbers of cells were determined using FACS analyses. Cell numbers are normalized to the number of cells in unstimulated control, which was set as 100%. […] Cells were stained with αCD8^+-FITC antibody (Pharmingen) and CD8^+ cell numbers were determined by FACS. Cell numbers are normalized to the number of cells in unstimulated control, which was set as 100%. Percentages of dead cells (line) was determined by co-staining cells with propidium iodide.
Values represent fold increase over unstimulated control.
Cells were stained with αCD8^+-FITC antibody (Pharmingen), and CD8^+ cell numbers were determined by FACS. Cell numbers are normalized to the number of cells in unstimulated control, which was set as 100%. Percentages of dead cells (line) were determined by co-staining cells with propidium iodide.

[2] = tested on: RIP kinase-induced necroptosis in FADD-deficient Jurkat cells; assay: Necroptosis induced by dimerized RIP kinase in FADD-deficient Jurkat cells, FACS; format: cell-based, human; settings: dimerizer AP1510, zVAD.fmk, 48 hours
Procedure: Percentage of PI-negative, GFP-positive cells (“Viability, %”) was determined by FACS. Numbers represent viability normalized to that of the compound-treated cells in the absence of dimerizer. Error bars represent standard deviations.

healthy cells = assay: Effect of compound alone on physiology of healthy cells (ATP, morphology, cell cycle, mRNA, ROS); format: cell-based
Procedure: Results of the forward and side scatter FACS analysis are shown. In addition, percentage of PI negative viable cells (±SD value) was determined in each sample. […] Numbers of PI negative viable cells (±SD value) in each sample are shown. […] FADD-deficient Jurkat cells were treated as described in FIG. 31A and cell cycle profiles were analyzed by PI DNA content FACS analysis. […] Cell viability was determined using ATP assay. Numbers represent viability normalized to that of the corresponding DMSO-treated cells. Error bars indicate standard deviation values. […] Cells were fixed, embedded and analyzed using electron microscopy. Representative images are shown. […] Cells were stained with dyhydroethydium (Molecular Probes) and analyzed by FACS. Percentages (±SD value) of cells with increased ROS levels are shown. […] Red dots are internal reference controls.
Cells were fixed and stained with anti-giantin (Golgi, green)/anti-KDEL (ER, red) antibodies (FIG. 32A), anti-β-tubulin (tubulin, green)/TO-PRO-3 dye (nuclei, blue)/phalloidin-TRITC (actin, red) (FIG. 32B) and anti-cytochrome c (mitochondria, red)/TO-PRO-3 (nuclei, blue) (FIG. 32C). […]
After the appropriate treatment, we washed Jurkat cells once, resuspended them in PBS, and fixed the cells by adding four volumes of ice cold 100% ethanol. […] We analyzed the data using ModFit software (Verity Software House).

[3] = tested on: FADD deficient Jurkat cells

methylthiohydantoin-tryptophane [Nec-1]
inhibition of CICD/necrosis of Jurkat cells, in words (Jurkat T cells): protected against CICD induced by FasL/CHX/zVAD; also recorded: efficiently inhibited by Nec-1; also recorded: inhibited all published examples of necrotic cell death induced by DR activation in the presence of caspase inhibitors
inhibition of CICD in 3T3 cells, in words (BALB/c 3T3 cells): inhibited all published examples of necrotic cell death induced by DR activation in the presence of caspase inhibitors
protection from MNNG-induced death, in words (FADD deficient JK cells): failed to protect cells from DNA alkylating agent 1-methyl-3-nitro-1-nitrosoguanidine (MNNG)-induced death
attenuation of amyloid-beta toxicity in hippocampal neurons, in words (Rat hippocampal neurons): protection by Nec-1 from amyloid-beta toxicity; also recorded: attenuation of the aggregated amyloid-beta peptide (Aβ) toxicity in primary rat hippocampal neurons
effect on AICD together with zVAD.fmk, in words ([1]; 100 μM zVAD.fmk and 30 μM Nec-1, 48 hours): inhibition of AICD by Nec-1; also recorded: together efficiently abrogated cell death
effect on AICD, compound alone, in words ([1]; re-activated CD4+ cells): displayed very little effect on the viability of re-activated T cells in the absence of zVAD.fmk
restoration of CTL activation/proliferation suppressed by zVAD.fmk, in words (CD8+ cells): restores normal activation of CTLs inhibited by caspase inhibition; also recorded: restoration of CTL proliferation by Nec-1; also recorded: completely suppressed by Nec-1; also recorded: suppression of cell proliferation was prevented in the presence of Nec-1
inhibition of RIP kinase-induced necroptosis, in words [2]: inhibits RIP kinase-induced necroptosis; also recorded: inhibited by Nec-1
general effect in healthy cells, in words (healthy cells): does not significantly affect gene expression in Jurkat cells; also recorded: had no general effect in healthy cells
non-specific cytotoxicity, in words ([3]; 24 hours, ATP assay): does not induce non-specific cytotoxicity in FADD-deficient Jurkat cells
LD50 ([3]; compound in the absence of TNFα): 374 µM
